Measured values from patent US20110190280A1, “Thiazole And Oxazole Kinase Inhibitors” (priority 2007, published 2011).

Key:
[1] = biological target: B-Raf (Homo sapiens, UniProt P15056); assay: B-Raf Accelerated MEK ATPase assay (BRAMA); assay type: biochemical; conditions: BRAMA enzyme assay; class by pIC50; read-out: B-Raf Activity
Description: Compounds of the present invention were tested for B-Raf […] inhibitory activity in a B-Raf Accelerated MEK ATPase assay (BRAMA). The BRAMA assay is a high sensitivity assay which measures an intrinsic MEK-mediated ATP hydrolysis uncoupled from downstream ERK phosphorylation by coupling the formation of ADP to NADH oxidation through the enzymes pyruvate kinase and lactate dehydrogenase. When ADP production is initiated by addition of catalytic amounts of an activated RAF enzyme and non-phosphorylated MEK, one observes robust ADP production concomitant with RAF-mediated phosphorylation of MEK. Specific details of the assay are disclosed in: C. Rominger, M. Schaber, E. May. Assay for B-Raf Activity Based on Intrinsic MEK ATPase Activity.

[2] = test system: Colo205 tumor cells; assay: Cell growth inhibition assay (CellTiter-Glo), Colo205; conditions: Homo sapiens, COLO 205, 72 h, read-out: Activity in Colo205 Tumor Cells;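 note: growth measured via total ATP luminescence (CellTiter-Glo) as a proxy for cell number, inhibition expressed against DMSO-treated control wells, 3-day exposure at 0.2% final DMSO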
[3] = test system: SK-MEL-28 tumor cells; assay: Cell growth inhibition assay (CellTiter-Glo), SK-MEL-28; conditions: Homo sapiens, SK-MEL-28, 72 h, read-out: Activity in SK-MEL-28 Tumor Cells;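 note: luminescent total ATP as a proxy for cell number, threefold serial dilutions at 0.2% DMSO, percent growth inhibition versus DMSO vehicle control wells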

B-Raf, sequence (P15056 whole entry): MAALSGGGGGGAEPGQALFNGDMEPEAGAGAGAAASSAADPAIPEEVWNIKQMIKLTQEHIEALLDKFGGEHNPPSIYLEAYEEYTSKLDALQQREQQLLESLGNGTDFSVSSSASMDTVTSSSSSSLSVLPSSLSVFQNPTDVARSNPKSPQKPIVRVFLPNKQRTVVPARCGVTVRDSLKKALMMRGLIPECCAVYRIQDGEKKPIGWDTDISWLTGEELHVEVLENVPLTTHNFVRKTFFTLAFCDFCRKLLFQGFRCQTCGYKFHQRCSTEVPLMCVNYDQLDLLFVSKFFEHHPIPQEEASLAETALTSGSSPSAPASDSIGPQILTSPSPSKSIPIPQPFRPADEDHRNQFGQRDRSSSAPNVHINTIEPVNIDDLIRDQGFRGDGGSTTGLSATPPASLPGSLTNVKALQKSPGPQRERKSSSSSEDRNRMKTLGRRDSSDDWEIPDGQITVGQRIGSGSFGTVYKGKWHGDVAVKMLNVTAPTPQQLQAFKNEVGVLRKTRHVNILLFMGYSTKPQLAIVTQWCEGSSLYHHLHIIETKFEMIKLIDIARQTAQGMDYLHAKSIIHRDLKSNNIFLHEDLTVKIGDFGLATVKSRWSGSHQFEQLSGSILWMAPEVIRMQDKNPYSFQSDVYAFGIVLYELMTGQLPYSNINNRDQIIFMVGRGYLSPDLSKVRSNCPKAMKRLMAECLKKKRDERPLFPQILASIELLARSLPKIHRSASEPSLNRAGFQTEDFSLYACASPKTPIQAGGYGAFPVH

| SMILES | IC50 [1] [nM] | IC50 [2] [nM] | IC50 [3] [nM] |
| --- | --- | --- | --- |
| COc1cc(OC)cc(-c2nc(N(C)C)sc2-c2ccnc(Nc3ccc(OC4CCN(CCS(C)(=O)=O)CC4)c(F)c3)n2)c1 [Example 24, 4-[4-[3,5-bis(methyloxy)phenyl]-2-(dimethylamino)-1,3-thiazol-5-yl]-N-[3-fluoro-4-({1-[2-(methylsulfonyl)ethyl]-4-piperidinyl}oxy)phenyl]-2-pyrimidinamine] | < 100 | < 500 | 500 to 5000 |
| CCNc1nc(-c2cc(C)cc(OC)c2)c(-c2ccnc(Nc3ccc(N4CCOCC4)c(C(=O)O)c3)n2)s1 [Example 26, 5-[(4-{2-(Ethylamino)-4-[3-methyl-5-(methyloxy)phenyl]-1,3-thiazol-5-yl}-2-pyrimidinyl)amino]-2-(4-morpholinyl)benzoic acid] | < 100 | < 500 | < 500 |
| CCNc1nc(-c2cc(C)cc(OCC)c2)c(-c2ccnc(Nc3ccc(N4CCN(C)CC4)c(F)c3)n2)s1 [Example 39, 4-{2-(Ethylamino)-4-[3-(ethyloxy)-5-methylphenyl]-1,3-thiazol-5-yl}-N-[3-fluoro-4-(4-methyl-1-piperazinyl)phenyl]-2-pyrimidinamine] | < 100 | – | – |
| CCNc1nc(-c2cccc(OC)c2)c(-c2ccnc(Nc3ccc(CCN4CCN(S(C)(=O)=O)CC4)nc3)n2)s1 [Example 40, 4-{2-(Ethylamino)-4-[3-(methyloxy)phenyl]-1,3-thiazol-5-yl}-N-(6-{2-[4-(methylsulfonyl)-1-piperazinyl]ethyl}-3-pyridinyl)-2-pyrimidinamine] | < 100 | < 500 | 500 to 5000 |
| CCNc1nc(-c2cccc(OC)c2F)c(-c2ccnc(Nc3ccc(OC4CCN(CCS(C)(=O)=O)CC4)c(F)c3)n2)s1 [Example 48, 4-{2-(Ethylamino)-4-[2-fluoro-3-(methyloxy)phenyl]-1,3-thiazol-5-yl}-N-[3-fluoro-4-({1-[2-(methylsulfonyl)ethyl]-4-piperidinyl}oxy)phenyl]-2-pyrimidinamine] | < 100 | < 500 | < 500 |
| CCNc1nc(-c2ccc(C)c(OC)c2)c(-c2ccnc(Nc3ccc(OCCN4CCCC4)c(C#N)c3)n2)s1 [Example 50, 5-[(4-{2-(Ethylamino)-4-[4-methyl-3-(methyloxy)phenyl]-1,3-thiazol-5-yl}-2-pyrimidinyl)amino]-2-{[2-(1-pyrrolidinyl)ethyl]oxy}benzonitrile] | < 100 | < 500 | 500 to 5000 |
| CCNc1nc(-c2ccnc(OC)c2)c(-c2ccnc(Nc3ccc(OCCN4CCCC4)c(Cl)c3)n2)s1 [Example 58, N-(3-Chloro-4-{[2-(1-pyrrolidinyl)ethyl]oxy}phenyl)-4-{2-(ethylamino)-4-[2-(methyloxy)-4-pyridinyl]-1,3-thiazol-5-yl}-2-pyrimidinamine] | < 100 | < 500 | < 500 |
| CCc1nc(-c2ccc3cc[nH]c3c2)c(-c2ccnc(Nc3ccc(OC4CCN(CCS(C)(=O)=O)CC4)c(F)c3)n2)s1 [Example 68, 4-[2-Ethyl-4-(1H-indol-6-yl)-1,3-thiazol-5-yl]-N-[3-fluoro-4-({1-[2-(methylsulfonyl)ethyl]-4-piperidinyl}oxy)phenyl]-2-pyrimidinamine] | < 100 | 500 to 5000 | 500 to 5000 |
| CCNc1nc(-c2cc(OC)cc(OC)c2)c(-c2ccnc(Nc3ccc(N4CCN(C)CC4)c(Cl)c3)n2)o1 [Example 69, 4-[4-[3,5-Bis(methyloxy)phenyl]-2-(ethylamino)-1,3-oxazol-5-yl]-N-[3-chloro-4-(4-methyl-1-piperazinyl)phenyl]-2-pyrimidinamine] | < 100 | < 500 | 500 to 5000 |
| CCNc1nc(-c2cc(C)cc(OC)c2)c(-c2ccnc(Nc3ccc(N4CCN5CCOC[C@H]5C4)nc3)n2)s1 [Example 71, 4-{2-(Ethylamino)-4-[3-methyl-5-(methyloxy)phenyl]-1,3-thiazol-5-yl}-N-{6-[(9aR)-hexahydropyrazino[2,1-c][1,4]oxazin-8(1H)-yl]-3-pyridinyl}-2-pyrimidinamine] | < 100 | < 500 | < 500 |
